The values below come from ChEMBL document CHEMBL2010725, “Synthesis and Cardiac Imaging of (18)F-Ligands Selective for β1-Adrenoreceptors” (ACS Med Chem Lett, 2011).

Data set [1] in a line: Selectivity ratio of IC50 for adrenergic beta2 receptor to IC50 for adrenergic beta1 receptor.
Data set [2] concerns the target Beta-1 adrenergic receptor (Homo sapiens, UniProt P08588). The data set can be described thus: Displacement of [3H](-)-CGP-12177 from adrenergic beta1 receptor by cell based assay. (Displacement assays read how much labelled ligand stays bound in the presence of the test substance.)
Data set [3] deals with Liver. The data set can be described thus: Drug uptake in Sprague-Dawley rat liver at 1 mCi after 30 mins by microPET analysis. The class given is ADME, tissue-based. Conditions: in vivo, 0.5 h; call rule not given here.
Data set [4] deals with Rattus norvegicus. The data set is described as follows: Drug metabolism in rat assessed as progressive loss of parent compound at 1 mCi/kg, iv after 30 mins by HPLC analysis. The class given is ADME, organism-based. Conditions: in vivo, 0.5 h.
Data set [5] can be described thus: Drug uptake in Sprague-Dawley rat myocardium after <5 mins by microPET analysis. It is filed as ADME, tissue-based. Conditions: in vivo.
A further data set deals with Kidney. The data set is described as follows: Biodistribution in Sprague-Dawley rat kidney at 15 uCi after 30 mins by gamma counting. It is filed as ADME, organism-based. The following applies: in vivo, 0.5 h.
Data set [6] relates to Lung. The data set can be described thus: Biodistribution in Sprague-Dawley rat lung at 15 uCi after 30 mins by gamma counting. The class given is ADME, organism-based. Conditions: in vivo, 0.5 h.
The next data set deals with Heart. The data set is described as follows: Biodistribution in Sprague-Dawley rat heart at 15 uCi after 30 mins by gamma counting. Conditions: in vivo, 0.5 h. The class given is ADME, organism-based.
Data set [7] in a line: Drug uptake in Sprague-Dawley rat myocardium at 1 mCi after 30 mins by microPET analysis. The class given is ADME, tissue-based. Conditions: in vivo, 0.5 h.
In data set [8] the test system is Liver. The data set can be described thus: Drug uptake in Sprague-Dawley rat liver at 1 mCi after 60 mins by microPET analysis. The class given is ADME, tissue-based. Conditions: in vivo, 1 h.
For data set [9], the system named is Rattus norvegicus. The data set can be described thus: Drug metabolism in rat assessed as progressive loss of parent compound at 1 mCi/kg, iv after 2 mins by HPLC analysis. Conditions: in vivo. The class given is ADME, organism-based.
The test system of data set [10] is Liver. The data set can be described thus: Biodistribution in Sprague-Dawley rat liver at 15 uCi after 30 mins by gamma counting. The following applies: in vivo, 0.5 h. It is filed as ADME, organism-based.
For another data set, the system named is Muscle tissue. The data set can be described thus: Biodistribution in Sprague-Dawley rat muscle at 15 uCi after 30 mins by gamma counting. The class given is ADME, organism-based. Conditions: in vivo, 0.5 h.
Data set [11] relates to Lung. The data set can be described thus: Drug uptake in Sprague-Dawley rat lung after <5 mins by microPET analysis. The following applies: in vivo. The class given is ADME, tissue-based.
Data set [12] relates to Liver. The data set can be described thus: Drug uptake in Sprague-Dawley rat liver after <5 mins by microPET analysis. The following applies: in vivo. It is filed as ADME.
The nature of data set [13]: Drug uptake in Sprague-Dawley rat myocardium at 1 mCi after 60 mins by microPET analysis. It is filed as ADME, tissue-based. The following applies: in vivo, 1 h.
For another data set, the system named is Blood. The data set can be described thus: Biodistribution in Sprague-Dawley rat blood at 15 uCi after 30 mins by gamma counting. The class given is ADME, organism-based. Conditions: in vivo, 0.5 h.
A further data set concerns Spleen. The data set can be described thus: Biodistribution in Sprague-Dawley rat spleen at 15 uCi after 30 mins by gamma counting. It is filed as ADME, organism-based. The following applies: in vivo, 0.5 h.
Data set [14] in a line: Ratio of drug level in lung to heart in Sprague-Dawley rat at 15 uCi after 30 mins by gamma counting. The following applies: in vivo, 0.5 h.
For another data set, the system named is Femur. The data set is described as follows: Biodistribution in Sprague-Dawley rat femur at 15 uCi after 30 mins by gamma counting. It is filed as ADME, organism-based. The following applies: in vivo, 0.5 h.
Data set [15] in a line: Drug excretion in rat urine assessed as parent compound at 1 mCi/kg, iv after 30 mins by HPLC analysis. The class given is ADME, organism-based. Conditions: read-out: Drug excretion.

Chain of Beta-1 adrenergic receptor (P08588 whole entry): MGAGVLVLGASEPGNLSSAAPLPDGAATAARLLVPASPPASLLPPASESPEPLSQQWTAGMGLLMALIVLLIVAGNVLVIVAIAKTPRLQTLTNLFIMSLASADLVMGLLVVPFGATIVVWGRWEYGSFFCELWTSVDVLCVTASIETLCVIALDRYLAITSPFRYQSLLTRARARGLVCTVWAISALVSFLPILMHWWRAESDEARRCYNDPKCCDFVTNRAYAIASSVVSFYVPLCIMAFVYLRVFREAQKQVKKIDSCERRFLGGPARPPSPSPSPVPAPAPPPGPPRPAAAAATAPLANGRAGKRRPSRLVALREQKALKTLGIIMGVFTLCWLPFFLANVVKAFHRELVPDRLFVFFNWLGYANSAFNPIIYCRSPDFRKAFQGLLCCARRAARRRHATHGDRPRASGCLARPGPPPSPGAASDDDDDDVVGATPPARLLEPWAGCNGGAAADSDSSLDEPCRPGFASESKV

A word on the IC50: it is the concentration needed to halve the response being measured. Consider `N#Cc1ccccc1OC[C@@H](O)CNCCNC(=O)Nc1ccc(Br)nc1`, for which the Ratio IC50 in [1] is > 1000. In data set [2], the half-inhibitory concentration (IC50) was 0.05 nM.
The matching figures for `COc1ccc(NC(=O)NCCNC[C@H](O)COc2ccccc2C#N)cc1`: 145 and 0.11 nM.
The matching figures for `N#Cc1ccccc1OC[C@@H](O)CNCCNC(=O)Nc1ccc(F)cc1`: 150 and 0.1 nM.
The matching figures for `CC(CF)Nc1ccc(NC(=O)NCCNC[C@H](O)COc2ccccc2C#N)cc1` (stereo partly drawn): 13 and 1.5 nM.
On to `N#Cc1ccccc1OC[C@@H](O)CNCCNC(=O)Nc1nnn(CCF)n1`, for which the Ratio IC50 in data set [1] turned out to be 10. For the same compound, in data set [2], the IC50 was determined as 10 nM.
For `N#Cc1ccccc1OC[C@@H](O)CNCCNC(=O)N1CCOCC1`, the Ratio IC50 in data set [1] was 4. Further, in data set [2], the IC50 was 20 nM.
The matching figures for `N#Cc1ccccc1OC[C@@H](O)CNCCCC(=O)Nc1ccc(F)nc1`: 30 and 3 nM.
As to `N#Cc1ccccc1OC[C@@H](O)CNCCNC(=O)Nc1cccc(OCCF)c1`, the Ratio IC50 in [1] turned out to be 265. In addition, in [2], the IC50 stood at 0.04 nM.
With `N#Cc1ccccc1OC[C@@H](O)CNCCNC(=O)Cc1ccc(F)cc1`, in [1], the Ratio IC50 was 6. The IC50 in [2] was 0.14 nM.
Consider `N#Cc1ccccc1OC[C@@H](O)CNCCNC(=O)NC1CCN(CCF)CC1`, for which the Ratio IC50 in data set [1] amounted to 0.05. For the same compound, the IC50 in data set [2] is > 100 nM.
The matching figures for `N#Cc1ccccc1OC[C@@H](O)CNCCNC(=O)Nc1ccc(OCCF)cc1`: 448 and 0.08 nM.
The matching figures for `N#Cc1ccccc1OC[C@@H](O)CNCCNC(=O)Nc1ccc(OCCCF)cc1`: 65 and 0.25 nM.
For the compound `N#Cc1ccccc1OC[C@@H](O)CNCCNC(=O)c1ccc(F)nc1`, the Ratio IC50 in data set [1] was 4. For the same compound, the IC50 in [2] amounted to 10 nM.
The matching figures for `N#Cc1ccccc1OC[C@@H](O)CNCCNC(=O)Nc1ccc(F)nc1`: 345 and 0.3 nM.
The matching figures for `N#Cc1c(F)cccc1OC[C@@H](O)CNCCNC(=O)Nc1ccc(C(=O)O)cc1`: 164 and 21 nM.
The matching figures for `N#Cc1ccccc1OC[C@@H](O)CNCCNS(=O)(=O)c1ccccc1F`: 0.1 and 5 nM.
In the case of `N#Cc1ccccc1OC[C@@H](O)CNCCNC(=O)Nc1cccc(OCC[18F])c1`, the Drug uptake entry in the data set with Liver [3] was “Active”; in data set [5], “Active”; in the data set on Kidney, 2.01 % ID/g; in the data set with Lung [6], 0.79 % ID/g; in the data set with Heart it was 0.62 % ID/g; in [7], “Active”. Besides, the Drug uptake entry in the data set on Liver [8] was “Not Active”; with Liver [10] it was 1.14 % ID/g; with Muscle tissue, 0.1 % ID/g; with Lung [11], “Active”; with Liver [12] it was “Active”; in [13], “Not Active”. Moreover, the Drug uptake with Blood came to 0.14 % ID/g; with Spleen, 0.52 % ID/g; in the data set with Femur, 0.16 % ID/g. Further, the results for the Drug metabolism in the data set on Rattus norvegicus [4] and with Rattus norvegicus [9] were 44% and 83%, respectively. In data set [14], the Ratio was determined as 1.27. For the same compound, in data set [15], the dose excreted at 0.5 h was determined as 76%.
Regarding `N#Cc1ccc(F)cc1OC[C@@H](O)CNCCNC(=O)Nc1ccc(C(=O)O)cc1`, the Ratio IC50 in [1] was determined as 70. In data set [2], this compound had an IC50 of 2 nM.
For the compound `N#Cc1ccccc1OC[C@@H](O)CNCCNC(=O)Nc1ccc(OCC[18F])cc1`, the Drug uptake result is listed as “Active” in the data set with Liver [3]; 1.26 % ID/g in the data set with Kidney; 0.97 % ID/g in the data set on Lung [6]; 0.48 % ID/g in the data set with Heart; “Active” in [7]; “Not Active” in the data set with Liver [8]. Further, the Drug uptake is recorded as 1.14 % ID/g in the data set on Liver [10]; 0.08 % ID/g in the data set on Muscle tissue; “Not Active” in [13]; 0.18 % ID/g with Blood; 0.37 % ID/g with Spleen; 0.27 % ID/g in the data set with Femur. In addition, the Ratio in [14] is recorded as 2.
Turning to `CCOc1ccc(NC(=O)NCCNC[C@H](O)COc2cccc(F)c2C#N)cc1`, in data set [1], the Ratio IC50 is 32. In [2], this compound yielded an IC50 of 2 nM.
`N#Cc1ccccc1OC[C@@H](O)CNCCNC(=O)Nc1ccccc1F`: in data set [1], the Ratio IC50 is 69. This compound returned an IC50 in data set [2] of 0.2 nM.
`N#Cc1ccccc1OC[C@@H](O)CNCCNC(=O)Nc1ccc(OCCC[18F])cc1`: the Drug uptake entry is “Active” with Liver [3]; 1.38 % ID/g in the data set on Kidney; 0.63 % ID/g in the data set on Lung [6]; 0.42 % ID/g in the data set on Heart; “Active” in data set [7]; “Not Active” with Liver [8]. In addition, the Drug uptake with Liver [10] is 1.03 % ID/g; in the data set with Muscle tissue, 0.09 % ID/g; in [13] it was “Not Active”; with Blood it was 0.21 % ID/g; in the data set on Spleen, 0.4 % ID/g; with Femur, 0.63 % ID/g. For the same compound, the Ratio in data set [14] was found to be 1.5.
As to `N#Cc1ccccc1OC[C@@H](O)CNCCNC(=O)Nc1ccc(I)nc1`, the Ratio IC50 in [1] worked out at 723. This compound displayed an IC50 in data set [2] of 0.05 nM.
With `N#Cc1ccccc1OC[C@@H](O)CNCCNC(=O)Nc1ccc(OCCF)nc1`, the Ratio IC50 in data set [1] stood at 50. This compound had an IC50 in [2] of 0.1 nM.
Consider `N#Cc1ccccc1OC[C@@H](O)CNCCNC(=O)Nc1ccc(C(=O)O)c(F)c1`, for which the Ratio IC50 in data set [1] amounted to 511. Also, the 50% inhibitory concentration (IC50) in [2] is 1 nM.
`N#Cc1ccccc1OC[C@@H](O)CNCCNC(=O)Nc1cnc(Br)cn1`: the Ratio IC50 in data set [1] amounted to 163. The compound also registered an IC50 in data set [2] of 0.35 nM.
The matching figures for `N#Cc1ccccc1OC[C@@H](O)CNCCNC(=O)Nc1nccs1`: 8 and 26 nM.
